Reference: PubChem BioAssay (NCI)
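All cell lines were grown in 96-well plates and treated with compound for 48 hours. TGI: total growth inhibition.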

Legend:
Test in all cases: NCI tumour cell line growth inhibition, 48 h
TK-10 renal = tested on: TK-10 renal
HS 578T breast = tested on: HS 578T breast
RXF 393 renal = tested on: RXF 393 renal
MDA-N = tested on: MDA-N
A498 renal = tested on: A498 renal
NCI-H23 lung = tested on: NCI-H23 lung
SK-OV-3 ovarian = tested on: SK-OV-3 ovarian
CCRF-CEM leukemia = tested on: CCRF-CEM leukemia
786-0 renal = tested on: 786-0 renal
HCT-116 colon = tested on: HCT-116 colon
SF-295 CNS = tested on: SF-295 CNS
UO-31 renal = tested on: UO-31 renal
NCI-H522 lung = tested on: NCI-H522 lung
COLO 205 colon = tested on: COLO 205 colon
DU-145 prostate = tested on: DU-145 prostate
NCI-H460 lung = tested on: NCI-H460 lung
LOX IMVI melanoma = tested on: LOX IMVI melanoma
SF-268 CNS = tested on: SF-268 CNS
ACHN renal = tested on: ACHN renal
NCI/ADR-RES ovarian = tested on: NCI/ADR-RES ovarian

Structure (SMILES)	TGI (TK-10 renal) [µM]	TGI (HS 578T breast) [µM]	TGI (RXF 393 renal) [µM]	TGI (MDA-N) [µM]	TGI (A498 renal) [µM]	TGI (NCI-H23 lung) [µM]	TGI (SK-OV-3 ovarian) [µM]	TGI (CCRF-CEM leukemia) [µM]	TGI (786-0 renal) [µM]	TGI (HCT-116 colon) [µM]	TGI (SF-295 CNS) [µM]	TGI (UO-31 renal) [µM]	TGI (NCI-H522 lung) [µM]	TGI (COLO 205 colon) [µM]	TGI (DU-145 prostate) [µM]	TGI (NCI-H460 lung) [µM]	TGI (LOX IMVI melanoma) [µM]	TGI (SF-268 CNS) [µM]	TGI (ACHN renal) [µM]	TGI (NCI/ADR-RES ovarian) [µM]
CC(C)OP(=O)(OC(C)C)C(C(C)C)N(C)/C(N)=N\C1=NC(C(F)(F)F)(C(F)(F)F)N=C(C(C(F)(F)F)C(F)(F)F)O1 (centres undefined)	13.6	> 100	4.08	4.91	23.5	14.6	19.8	4.88	12.4	6.6	18	16	3.09	3.64	25.6	9.91	3.77	12	8.67	
COC(=O)c1[nH]c(=S)[nH]c(=O)c1-c1ccc(Cl)cc1	> 50		> 50		> 50	> 50	> 50	> 50	> 50	> 50	> 50	> 50	> 50	> 50		> 50	> 50	> 50	> 50	
Cn1nc(Cc2ccc(Cl)cc2)n(N)c1=O	> 100		> 100	> 100	> 100	> 100			> 100	> 100	> 100	> 100			> 100	> 100		> 100	> 100	> 100
COc1ccccc1C1CC(=O)CC(c2ccccc2OC)C12C(=O)NC(=S)NC2=O (centres undefined)	> 100		> 100	52.5		> 100		> 100	> 100	> 100	> 100	> 100	> 100	> 100	> 100	> 100	> 100	> 100	> 100	> 100
Cn1c(O)c(C(=O)Nc2cccs2)c(=O)[nH]c1=S	61.6				35.8	28	72.5	> 100	41.8	26.5	38.1	34.1	27.6	30.2		43.7	31	41.9	43.7	
CC1C2CC(CC(=O)N2)C1(C)C (centres undefined)	> 100	> 100	> 100	> 100	> 100	> 100	> 100	> 100	> 100	> 100	> 100	> 100	> 100	> 100	> 100	> 100		> 100	> 100	
CC#COP(=O)(OCC)OCC	> 100				> 100	> 100	> 100	> 100	> 100	> 100	> 100	> 100	> 100	> 100		> 100	> 100	> 100	> 100	
CC1CC2OC(=O)C3CC(O)CC(=C23)[C@@]12C[C@@H](c1ccoc1)OC2=O (some centres undefined)	> 100		> 100			> 100	> 100	> 100	> 100	> 100	> 100	> 100	> 100	> 100		> 100	> 100	> 100	> 100	
CC(C)c1ccccc1SC1CC(=O)CC(Sc2ccccc2C(C)C)C12O[C@H](c1ccccc1)[C@@H](c1ccccc1)O2 (some centres undefined)	> 100		42	47.5	> 100	> 100	> 100	52.9	33.3	> 100	> 100			> 100	> 100	> 100	97.4		> 100	> 100
CCOC(=O)CSc1ccnc(=O)[nH]1	> 100		> 100		> 100		> 100	> 100	> 100	> 100	> 100	> 100	> 100	> 100		> 100	> 100	> 100	> 100	
CCOC(C[C@H](O)[C@H]1COC(=S)S1)OCC	> 100		> 100			> 100			> 100	> 100	> 100	> 100	> 100	> 100		> 100	> 100	> 100	> 100	
C/C(CN1C(=O)c2ccccc2C1=O)=N\NS(=O)(=O)c1ccc(Br)cc1	> 100		> 100		> 100	> 100	> 100	> 100	> 100	> 100	> 100	> 100	> 100	> 100		> 100	> 100	> 100	> 100	
Cc1c2ccncc2cc2c1sc1ccncc12	36	20.4	12.4	14.3	13.8	10.7	29	5.32	18	13.1	9.59	8.04	9.09	12.1	6.9	4.77	25.6	14.4	4.22	
NC(=S)NNC(=O)/C(=C/c1ccc(/C=C(\NC(=O)c2ccccc2)C(=O)NNC(N)=S)cc1)NC(=O)c1ccccc1	> 100		> 100		> 100	> 100	> 100	> 100	> 100	> 100	> 100	> 100	> 71.1	> 100		> 100	> 100	> 100	> 100	
